Measurements: patent publication US20210069351A1, “METHOD FOR SCREENING PAIN INHIBITING SUBSTANCE” (priority 2017, published 2021)

Experiments:
[1] = Stability of GABA and glutamate test samples under storage, treatment and analysis conditions; assay type: physicochemical
Experimental: The test samples were stored in a freezer at −70° C., and thawed at room temperature before use. 20 μL of microdialysate was added to 20 μL of acetonitrile, well mixed (vortexing, 30 sec) and centrifuged at 3,000 rpm for 5 minutes. A supernatant was taken and injected by 5 μL for LC-MS/MS analysis.
Stability was tested under various conditions for which GABA and a glutamate test sample could be exposed.

β-endorphin = assay: Neuropeptide and cytokine concentrations in spinal cord dorsal horn microdialysate after pregabalin; assay type: in vivo, rat; details: 30 mg/kg pregabalin, neuropathic pain model and control
Excerpt: Spared nerve injury (SNI) models were used to assess the concentration of a pain indicator substance present in a dorsal horn in the spinal cord. To generate an efficient neuropathic pain model, the rats were anesthetized under 3% isoflurane (Hana Pharm., South Korea), after incision on the left hind of the rat leg the common peroneal and the tibial nerve of three peripheral nerve branches in the sciatic nerve were axotomized and the sural nerve was spared then the surgical site was closed (FIG. 1). After surgery, animals were placed in the home cage to recover. 2 weeks after surgery, hypersensitivity will occur in the lateral area of the rat left hind paw.
Before inserting microdialysis probe into the tissue, the probe was immersed in 70% ethanol and washed for 15 minutes at the flow rate of 3.5 ul/min. Then, the probe was immersed in distilled water and washed for 15 minutes in the same protocol. When the washing step was completed, the probe was inserted at a depth of approximately 2 mm into the dorsal horn of the L1 spinal cord (FIG. 4). […]
For analysis of the neuropeptide and cytokine of the test samples was used using “Luminex 200 multiplex system” by multiplex cytokines assay. Ten most important of pain-related neuropeptides such as IFN-gamma, IL-1 beta, IL-6, IL-10, TNF-α, MCP-1, MIP-1α, BDNF, substance P and β-endorphin and cytokines were analyzed using a total of 4 kits.

NCCCC(=O)O [GABA, γ-aminobutyric acid]
Remaining, freeze/thaw ([1]; 20 ng/mL): 103.1% | Remaining, freeze/thaw ([1]; 100 ng/mL): 106.7% | Remaining, freeze/thaw ([1]; 800 ng/mL): 101.6% | Remaining, long term stability ([1]; 1 month, 20 ng/mL): 101.8% | Remaining, long term stability ([1]; 1 month, 100 ng/mL): 102.3% | Remaining, long term stability ([1]; 1 month, 800 ng/mL): 97.7% | Remaining, autosampler tray ([1]; 6 h, 20 ng/mL): 105.4% | Remaining, microdialysis sample at RT ([1]; 6 h, 20 ng/mL): 105.3% | Remaining, autosampler tray ([1]; 6 h, 100 ng/mL): 101.2% | Remaining, microdialysis sample at RT ([1]; 6 h, 100 ng/mL): 100.6% | Remaining, autosampler tray ([1]; 6 h, 800 ng/mL): 92.1% | Remaining, microdialysis sample at RT ([1]; 6 h, 800 ng/mL): 91.8%

N[C@@H](CCC(=O)O)C(=O)O [Glutamate, glutamate]
Remaining, freeze/thaw ([1]; 3 cycles, 20 ng/mL): 104.1% | Remaining, freeze/thaw ([1]; 3 cycles, 100 ng/mL): 100.8% | Remaining, freeze/thaw ([1]; 3 cycles, 800 ng/mL): 101.9% | Remaining, autosampler tray ([1]; 4° C. for 6 h, 20 ng/mL): 106.5% | Remaining, autosampler tray ([1]; 4° C. for 6 h, 100 ng/mL): 102.3% | Remaining, autosampler tray ([1]; 4° C. for 6 h, 800 ng/mL): 101.1% | Remaining, microdialysis sample at RT ([1]; RT for 6 h, 20 ng/mL): 101.3% | Remaining, microdialysis sample at RT ([1]; RT for 6 h, 100 ng/mL): 97.3% | Remaining, microdialysis sample at RT ([1]; RT for 6 h, 800 ng/mL): 99.8% | Remaining, long term stability ([1]; −70° C. 1 month, 20 ng/mL): 104.2% | Remaining, long term stability ([1]; −70° C. 1 month, 100 ng/mL): 98.6% | Remaining, long term stability ([1]; −70° C. 1 month, 800 ng/mL): 96.0%

CC(C)C[C@H](CN)CC(=O)O [pregabalin]
concentrations of β-endorphin in microdialysate (β-endorphin): significantly increased and then decreased
